Measurements as given in patent US20250205204A1, “Transcription Factor Brn2 Inhibitory Compounds for Use as Therapeutics” (The University of British Columbia, priority 2021, published 2025).

Target: T1, BRN2 (Homo sapiens, UniProt P20265)
T1 sequence (P20265 1-443): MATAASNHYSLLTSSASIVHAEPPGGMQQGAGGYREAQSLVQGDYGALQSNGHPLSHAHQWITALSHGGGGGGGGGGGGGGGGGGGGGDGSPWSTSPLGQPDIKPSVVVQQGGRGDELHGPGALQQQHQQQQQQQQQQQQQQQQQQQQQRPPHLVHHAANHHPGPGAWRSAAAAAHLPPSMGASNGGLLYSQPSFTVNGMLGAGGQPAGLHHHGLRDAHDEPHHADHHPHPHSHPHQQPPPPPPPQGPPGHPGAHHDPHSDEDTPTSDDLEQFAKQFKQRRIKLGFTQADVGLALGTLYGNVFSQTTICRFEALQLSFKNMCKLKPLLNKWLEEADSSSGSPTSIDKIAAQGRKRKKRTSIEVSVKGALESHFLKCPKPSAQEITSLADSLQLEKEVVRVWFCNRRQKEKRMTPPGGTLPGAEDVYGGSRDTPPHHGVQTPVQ
Experiment: Drug Affinity Responsive Target Stability (DARTS) assay
Conditions: printed in BLI binding column; 42D^ENZR lysate
Procedure: Step 2: Drug Affinity Responsive Target Stability (DARTS) Assay
This in cell assay provides a yes/no answer to direct interaction between BRN2 inhibitor and protein.
1) Prepare and place the following on ice: • Pronase • TNC 10× • 500 mM Tris-HCl (pH 8.0) • 500 mM NaCl, 100 mM CaCl2 • DMSO • Drug • 10 mL NP40+Protease inhibitor+Phosphatase inhibitor solution (can store in 4° C. and use for up to 4 weeks): • 2 mL NP40 5× • 8 mL ddH2O • 1 PhosphoSTOP™ pill • 200 uL protease inhibitor 50×
2) Remove the growth medium from the cell plate (42D^ENZR) and add 10 mL of cold PBS/vanadate.
3) Scrape the cells. Remove the PBS-cell solution and add in a falcon tube.
4) Name a new 1.5 ml Eppendorf tube and put on ice to pre-chill.
5) Centrifuge the cells at 1500 for 5 minutes at 4° C. Remove supernatant and re-suspend the cells in 600 uL NP40 lysis buffer by pipetting up and down. If the cell pellet is small use less volume, for example 300 μl)
6) Transfer the lysing cells into the pre-chilled Eppendorf tube. Incubate on ice for 20 minutes. If not continuing the DARTS on the same day, you can put the lysate in −30 and work on it later.
Preparing Cell Lysates for DARTS:
7) Centrifuge the tube at maximum speed for 25-30 minutes at 4° C.
8) Discard the pellet (either transfer the supernatant in a new tube or just take out the pellet). […]
20) The samples are ready for Western blot gel running. […]

SMILES: O=C1/C(=N\Nc2nc3ccccc3s2)Cc2ccccc21 [7-62, (Z)-2-(2-(benzo[d]thiazol-2-yl)hydrazineylidene)-2,3-dihydro-1H-inden-1-one]
- binding observed using DARTS assay: Strong binding observed using DARTS assay
